Biological target: T1, human estrogen receptor α (Homo sapiens, UniProt P03372)
T1 sequence (P03372 1-595): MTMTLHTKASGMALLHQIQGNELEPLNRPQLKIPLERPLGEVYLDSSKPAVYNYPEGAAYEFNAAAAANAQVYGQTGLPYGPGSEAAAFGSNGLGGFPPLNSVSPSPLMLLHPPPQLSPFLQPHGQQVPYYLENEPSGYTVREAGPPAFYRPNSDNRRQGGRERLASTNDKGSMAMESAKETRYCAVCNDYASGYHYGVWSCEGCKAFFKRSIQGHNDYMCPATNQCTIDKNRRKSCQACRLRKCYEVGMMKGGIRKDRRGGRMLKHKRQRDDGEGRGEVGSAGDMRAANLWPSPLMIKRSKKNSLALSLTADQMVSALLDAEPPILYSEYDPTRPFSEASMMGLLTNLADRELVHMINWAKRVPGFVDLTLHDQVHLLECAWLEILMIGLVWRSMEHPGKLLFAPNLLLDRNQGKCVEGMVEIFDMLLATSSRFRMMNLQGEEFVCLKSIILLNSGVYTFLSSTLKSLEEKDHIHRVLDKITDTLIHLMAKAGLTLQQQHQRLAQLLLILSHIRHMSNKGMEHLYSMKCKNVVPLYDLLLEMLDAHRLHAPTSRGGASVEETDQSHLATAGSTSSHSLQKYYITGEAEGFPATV
Assay: Competitive bonding of E2-BSA-CY5 and test substance to immobilized estrogen receptor, flow-type fluorescence detection
Assay type: binding
Details: for range of concentration in which reduction in fluorescence intensity can be confirmed / substance can be detected: bonding inhibition ratio against concentration, Fig. 4, Fig. 6; for inhibition of bonding of E2-BSA-CY5 to the receptor (reduction in fluorescence intensity): various concentrations added to E2-BSA-CY5 of fixed concentration, Fig. 3, Fig. 5
Protocol: As an estrogen receptor, a human estrogen receptor α [manufactured by PanVela Corporation, Drive Madison, Wisconsin, USA] was used.
Immobilization of the estrogen receptor to a carrier (beads) was carried out by natural adsorption. […] 0.2 g of the beads was put in a small test tube, and suspended in 1 ml of a buffer for bonding (50 mM tris HCl, 500 mM KCl, 2mM DDT, 1mM EDTA, 10% glycerol, pH 7.8). 70 pmol of the estrogen receptor was put in this suspension, and blended for 30 minutes at a room temperature. Thereafter, 100 µl of bovine serum albumin was added so as to obtain the final concentration of 1 mg/ml. After addition, it is further blended for 30 minutes at a room temperature. Subsequently, the particles were washed by using the same buffer, again suspended in 30 ml of the same buffer, and used for measurement. It is to be noted that, as beads for comparison in which the estrogen receptor is not immobilized, those obtained by adding only bovine serum albumin to the beads were prepared by the similar operation.
In order to provide this fluorescence dye, a CY5 labeling kit [manufactured by Amersham Life Science, Arlington Heights, Illinois, USA] was used. The 17β-estradiol-bovine serum albumin having the fluorescence dye given thereto and the free fluorescence dye were partitioned by the gel filtration chromatography.
For measurement of a fluorescence intensity, a detector having a flow type fluorophotometer [manufactured by Sapidyne Instrument Inc., Boise, Idaho, USA] incorporated therein was used. […] The fluorescence intensity can be measured in units of an electrical signal by an excitation light source 3 and the detector 4 arranged with a glass cell 1 having a diameter of 1.5 mm and a length of 30 mm therebetween. The immobilized estrogen receptor 2 having the shape of beads is filled in the glass cell 1 by being banked up and laminated by a screen S consisting of 50 µm nylon mesh set in the glass cell 1. […] The material remaining between beads, which is not bonded to the receptor 2, is discharged from the direction indicated by an arrow b by leading only the buffer at a speed of 1.5 ml/min. Thereafter, the remaining fluorescence intensity was evaluated as a quantity of bonding. Specifically, the buffer for bonding was diluted with E2-BSA-CY5 so as to obtain approximately 400 ng/ml. It is to be noted that this concentration was appropriately adjusted in accordance with a ratio of provision of the fluorescence in E2-BSA-CY5. The same quantity of the buffer for bonding in which a natural hormone or a chemical substance with the already-known concentration was dissolved was added to the diluted solution and left to take its own course at a room temperature for 30 minutes. Incidentally, in case of a water-insoluble material, it was completely dissolved in dimethyl sulfoxide and then appropriately diluted. Further, it was left to stand and used for measurement.

| Molecule | range of concentration in which reduction in fluorescence intensity can be confirmed / substance can be detected | inhibition of bonding of E2-BSA-CY5 to the receptor (reduction in fluorescence intensity) |
| --- | --- | --- |
| CC(C)(c1ccc(O)cc1)c1ccc(O)cc1 [bisphenol A] | 10^-8 to 10^-6 M | the fluorescence intensity was lowered |
| C[C@]12CC[C@H]3[C@@H](CCC4=CC(=O)CC[C@@]43C)[C@@H]1CC[C@@H]2O [testosterone, reference compound] | – | did not inhibit |
| nonylphenol | 10^-9 to 10^-5 M | the fluorescence intensity was lowered |

— patent EP1231468A1, “METHOD FOR DETECTING EXOGENOUS ENDOCRINE DISRUPTING CHEMICAL AND DETECTION APPARATUS” (Central Research Institute of Electric Power Industry, priority 1999, dated 2001)
